Reference: patent publication US5760087A, “Glycylanilide derivatives, their preparation and their application in therapy” (Pierre Fabre Medicament, priority 1995, dated 1998)

Key:
[1] = system: hepatic microsomal lipids (rat liver microsomes); assay: Antioxidant activity: chemical peroxidation of rat liver microsomes (T.BARS); assay type: biochemical; conditions: Fe3+/ADP/dihydroxyfumaric acid
Description: In the presence of Fe^3+ and ADP, dihydroxyfumaric acid undergoes an autoxidation which generates oxygen free radicals. The latter bring about the peroxidation of hepatic microsomal lipids.

plasma cholesterol = assay: Hypocholesterolemic activity in rats on hypercholesterolemic diet; assay type: in vivo; conditions: Rattus norvegicus; male rats, oral, 4 days, Altromin C 1061 hypercholesterolemic diet; plasma cholesterol on day 5 after 16 h fast; read-out: ED50 (dose which reduces the plasma cholesterol concentration by half relative to control animals)
Procedure: 2) Hypocholesterolemic Activity
Male rats (160-180 g) are subjected for 4 days to an Altromin C 1061 hypercholesterolemic diet, and concomitantly treated orally with the compounds suspended in carboxymethylcellulose at a concentration of 1%.
On day 5, the animals, fasted for 16 hours, are anesthetized with ethyl ether and exsanguinated by drawing blood at the abdominal aorta onto EDTA.
The blood is immediately centrifuged and the plasma stored at 4° C.
Plasma cholesterol is then assayed by the CHOP-PAP method (Boehringer-Mannheim Ref. 237574).
The median effective dose (ED50) corresponds to the dose which reduces the plasma cholesterol concentration by half relative to control animals.

Human LDL = assay: Antioxidant activity: oxidation of LDL by CuSO4 (T.BARS); assay type: biochemical; conditions: 4.5 μM CuSO4, 6 hours incubation, T.BARS at 532 nm
[2] = target: ACAT (acyl-CoA:cholesterol O-acyltransferase enzyme); assay: Inhibition of ACAT in vitro (technique of H. Chautan et al.); assay type: biochemical; conditions: read-out: IC50 (50% inhibitory concentration), ACAT inhibition
Description: The compounds were studied for their inhibitory effect on ACAT and hypocholesterolemic effect in rats on the one hand and for their antioxidant effect on the other hand.

IC50 [1] | IC50 (Human LDL) | IC50 [2] | SMILES | ED50 (plasma cholesterol)
3 µM | 5 µM | 1.2 µM | CCCCCCCCCCCCSC(C)C(=O)NCC(=O)Nc1cc(C)c(O)c(C)c1C (centres unmarked) [Compound 1, N-(2-n-dodecylthio)propionamido-2',3',5'-trimethyl-4'-hydroxyglycylanilide] | 1 mg/kg
0.5 µM | 1 µM | 0.74 µM | CCCCCCCCCCCCC(C)(C)C(=O)NCC(=O)Nc1cc(C)c(O)c(C)c1C [Compound 2, N-(α,α,-dimethyl)tetradecanamido-2',3',5'-trimethyl-4'-hydroxyglycylanilide] | 3 mg/kg
0.5 µM | 5 µM | 0.16 µM | CCCCCCCCCCCCSC(C)(C)C(=O)N(C)CC(=O)Nc1cc(C)c(O)c(C)c1C [Compound 3, N-methyl-N-(α-n-dodecylthio)isobutyramido-2',3',5'-trimethyl-4'-hydroxyglycylanilide] | < 2.5 mg/kg
0.3 µM | 3 µM | 0.62 µM | CCCCCCCCCCCCSC(C)(C)C(=O)NCC(=O)Nc1cc(C)c(O)c(C)c1C [Compound 5, N-(α-n-dodecylthio)isobutyramido-2',3',5'-trimethyl-4'-hydroxyglycylanilide] | 2.5 mg/kg

Second part, the compound before the results:

SMILES | IC50 [1] | IC50 (Human LDL) | IC50 [2] | ED50 (plasma cholesterol)
CCCCCCCCCCC(C)(C)C(=O)Nc1c(OC)cc(OC)cc1OC [CI 976, reference compound] | > 10 µM | 100 µM | – | 7.2 mg/kg
CCCCCCCCCCCCSC(C)C(=O)N(C)CC(=O)Nc1cc(C)c(O)c(C)c1C (stereo not drawn) [Compound 8, N-methyl-N-(α-n-dodecylthio)propionamido-2',3',5'-trimethyl-4'-hydroxyglycylanilide] | 0.5 µM | 3 µM | 0.28 µM | 4 mg/kg
CCCCCCCN(CCCCCSc1nc(-c2ccccc2)c(-c2ccccc2)[nH]1)C(=O)Nc1ccc(F)cc1F [DUP 128, reference compound] | > 10 µM | 30 µM | – | 1.4 mg/kg
